Measurements reported in patent US10316371B2, “Screening methods for identifying specific Staphylococcus aureus inhibitors” (TRANA DISCOVERY, INC., priority 2011, dated 2019).
≈ marks a conversion by molar mass, not a printed value.

Experiments:
Assay in all cases: MIC
Type in all cases: cell-based
[1] = system: SA 182 (Staphylococcus aureus 182); settings: SA 182, read-out: MIC
Method: (§1) The strains included Staphylococcus aureus, Methicillin Resistant (ATCC 33591), Methicillin-Resistant Staphylococcus aureus USA300, Staphylococcus aureus 158, Staphylococcus aureus 22, Staphylococcus aureus 2, Staphylococcus aureus (ATCC 29213), and Staphylococcus aureus 182.
(§2) A series of compounds were evaluated for their activity against drug resistant S. aureus, including MSSA and MRSA strains.

[2] = system: SA 2 (Staphylococcus aureus 2); settings: SA 2, read-out: MIC
Method: as §1, §2

[3] = system: SA 22 (Staphylococcus aureus 22); settings: SA 22, read-out: MIC
Method: as §1, §2

[4] = system: SA 29213 (Staphylococcus aureus (ATCC 29213)); settings: ATCC29213, SA 29213, read-out: MIC
Method: as §1, §2

[5] = system: SA 33591 (Staphylococcus aureus, Methicillin Resistant (ATCC 33591)); settings: ATCC33591, SA 33591, read-out: MIC
Method: as §1, §2

[6] = system: SA USA 300 (Methicillin-Resistant Staphylococcus aureus USA300); settings: SA USA 300, read-out: MIC
Method: as §1, §2

Compound	MIC [1] [µg/mL]	MIC [2] [µg/mL]	MIC [3] [µg/mL]	MIC [4] [µg/mL]	MIC [5] [µg/mL]	MIC [6] [µg/mL]
Cc1ccc2nc(-c3ccc(NC(=O)CN4CCN(CCO)CC4)cc3)sc2c1 [Compound #169, 2-[4-(2-hydroxyethyl)-1-piperazinyl]-N-[4-(6-methyl-1,3-benzothiazol-2-yl)phenyl]acetamide]	16 (≈ 39 µM)	8 (≈ 19.5 µM)	16 (≈ 39 µM)	16 (≈ 39 µM)	32 (≈ 77.9 µM)	8 (≈ 19.5 µM)
Brc1ccc(-c2nc(N3CCNCC3)c3ccccc3n2)cc1 [Compound #880, 2-(4-bromophenyl)-4-(1-piperazinyl)-quinazoline]	8 (≈ 21.7 µM)	4 (≈ 10.8 µM)	8 (≈ 21.7 µM)	8 (≈ 21.7 µM)	8 (≈ 21.7 µM)	8 (≈ 21.7 µM)
